Test results taken from US20090257979A1, “Novel Inhibitors of Hepatitis C Virus Replication” (INTERMUNE, INC., priority 2008, published 2009).

Tests used:
[1] = target: T1, NS5B polymerase protein (Hepatitis C virus genotype 1a, UniProt P27958); test: biochemical; conditions: pre-incubated 37° C. 30 minutes; RdRp reaction 90 minutes at 37° C.; read-out: HCV NS5B inhibition EC50
T1 construct: pre-incubated with the RNA template and NS5B polymerase protein; Replizyme
Experimental: The compounds were tested in the Replizyme HCV heterotemplate radioactive RNA-dependent RNA-polymerase (RdRp) assay. The test compounds were pre-incubated with the RNA template and NS5B polymerase protein at 37° C. for 30 minutes. The RdRp reaction was initiated with the addition of the NTPs to the buffer-NS5B-compound mix, and was allowed to proceed for 90 minutes at 37° C. Control reactions included: no enzyme, 5% DMSO (test compound solvent), no compound/solvent, Cordycepin-TP and HCV-796 (IC50 values used as a reference inhibition). Radioactive products were collected by applying the stopped reaction to DE-81 paper, air dried prior to washing with buffer comprising NaH2PO4 and sodium pyrophosphate to remove unincorporated ^32P-GTP in the NTP mix, and rinsed with dH2O followed by 100% ethanol. The DE-81 paper was air dried, squares cut out and placed in scintillation tubes for counting.

[2] = system: HCV Replicon; test: HCV Replicon inhibition; format: cell-based; conditions: Hepatitis C virus

T1 sequence (P27958 2421-3011): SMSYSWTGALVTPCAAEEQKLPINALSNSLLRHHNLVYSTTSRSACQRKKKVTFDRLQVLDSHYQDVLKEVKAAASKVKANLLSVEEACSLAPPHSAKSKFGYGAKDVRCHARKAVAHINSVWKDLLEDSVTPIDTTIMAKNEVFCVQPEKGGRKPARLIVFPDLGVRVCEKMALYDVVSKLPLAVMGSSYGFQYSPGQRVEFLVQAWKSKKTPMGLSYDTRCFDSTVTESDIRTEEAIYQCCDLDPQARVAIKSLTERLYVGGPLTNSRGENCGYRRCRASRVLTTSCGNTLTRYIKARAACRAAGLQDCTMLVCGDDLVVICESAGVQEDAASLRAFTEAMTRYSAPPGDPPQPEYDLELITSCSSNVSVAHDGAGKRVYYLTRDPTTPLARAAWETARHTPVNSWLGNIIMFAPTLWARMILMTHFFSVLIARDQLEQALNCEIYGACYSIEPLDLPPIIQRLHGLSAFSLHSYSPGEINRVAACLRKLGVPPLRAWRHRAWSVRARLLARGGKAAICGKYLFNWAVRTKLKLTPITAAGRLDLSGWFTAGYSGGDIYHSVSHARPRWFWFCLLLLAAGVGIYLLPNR

| Compound | EC50 [1] [nM] | EC50 [2] [nM] |
| --- | --- | --- |
| COc1cccc2c1c(C1=NS(=O)(=O)c3cc(NS(C)(=O)=O)ccc3N1)cn2CCC(C)C [Compound 205] | 10000 to 50000 | 10000 to 50000 |
| CS(=O)(=O)Nc1ccc2c(c1)S(=O)(=O)N=C(c1c(O)n3ccccc3c(Cc3ccccc3)c1=O)N2 [Compound 238, N-[3-(1-Benzyl-4-hydroxy-2-oxo-2H-quinolizin-3-yl)-1,1-dioxo-1,4-dihydro-1lambda′6′-benzo[1,2,4]thiadiazin-7-yl]-methanesulfonamide] | < 100 | < 100 |
| CC(C)CCn1c(=O)c(C2=NS(=O)(=O)c3cc(NS(C)(=O)=O)ccc3N2)c(O)n2nc(C3CC3)cc12 [Compound 234, N-{3-[2-cyclopropyl-7-Hydroxy-4-(3-methyl-butyl)-5-oxo-4,5-dihydro-pyrazolo[1,5-a]pyrimidin-6-yl]-1,1-dioxo-1,4-dihydro-1lambda*6*-benzo[1,2,4]thiadiazin-7-yl}-methanesulfonamide] | 10000 to 50000 | < 100 |
| Cc1cc2n(CCC(C)C)c(=O)c(C3=NS(=O)(=O)c4cc(NS(C)(=O)=O)ccc4N3)c(O)n2n1 [Compound 233, N-{3-[7-Hydroxy-2-methyl-4-(3-methyl-butyl)-5-oxo-4,5-dihydro-pyrazolo[1,5-a]pyrimidin-6-yl]-1,1-dioxo-1,4-dihydro-1lambda*6*-benzo[1,2,4]thiadiazin-7-yl}-methanesulfonamide] | 1000 to 10000 | < 100 |
| CC(C)CCn1cc(C2=NS(=O)(=O)c3cc(NS(C)(=O)=O)ccc3N2)c2ccc(C(C)C)cc21 [Compound 211] | 1000 to 10000 | 10000 to 50000 |
| CC(C)CCn1c(=O)c(C2=NS(=O)(=O)c3cc(NS(C)(=O)=O)ccc3N2)c(O)n2ncnc12 [Compound 235, N-{3-[7-Hydroxy-4-(3-methyl-butyl)-5-oxo-4,5-dihydro-[1,2,4]triazolo[1,5-a]pyrimidin-6-yl]-1,1-dioxo-1,4-dihydro-1lambda*6*-benzo[1,2,4]thiadiazin-7-yl}-methanesulfonamide] | 1000 to 10000 | < 100 |
| CS(=O)(=O)Nc1ccc2c(c1)S(=O)(=O)N=C(c1c(O)n3ccccc3c(Cc3ccc(F)c(F)c3)c1=O)N2 [Compound 236, N-{3-[1-(3,4-Difluoro-benzyl)-4-hydroxy-2-oxo-2H-quinolizin-3-yl]-1,1-dioxo-1,4-dihydro-1lambda′6′-benzo[1,2,4]thiadiazin-7-yl}-methanesulfonamide] | < 100 | < 100 |
| CC(C)CCC1(C)C(=O)C(C2=NS(=O)(=O)c3cc(NS(C)(=O)=O)ccc3N2)=C(O)c2nccn21 (stereo not shown) [Compound 215] | 1000 to 10000 | – |
| CC(C)CCC1(C)C(=O)C(C2=NS(=O)(=O)c3cc(NS(C)(=O)=O)ccc3N2)=C(O)c2ccnn21 (stereo not shown) [Compound 223] | < 100 | 1000 to 10000 |
| CC(C)CCC1(C)C(=O)C(C2=NS(=O)(=O)c3cc(NS(C)(=O)=O)ccc3N2)=C(O)c2cccn21 (stereo not shown) [Compound 214] | < 100 | 100 to 1000 |
| CS(=O)(=O)Nc1ccc2c(c1)S(=O)(=O)N=C(c1c(O)n3nccc3n(Cc3ccc(F)cc3)c1=O)N2 [Compound 231, N-{3-[4-(4-Fluoro-benzyl)-7-hydroxy-5-oxo-4,5-dihydro-pyrazolo[1,5-a]pyrimidin-6-yl]-1,1-dioxo-1,4-dihydro-1lambda*6*-benzo[1,2,4]thiadiazin-7-yl}-methanesulfonamide] | 10000 to 50000 | < 100 |
| CC(C)CCn1c(=O)c(C2=NS(=O)(=O)c3cc(NS(C)(=O)=O)ccc3N2)c(O)n2nccc12 [Compound 229, N-{3-[7-Hydroxy-4-(3-methyl-butyl)-5-oxo-4,5-dihydro-pyrazolo[1,5-a]pyrimidin-6-yl]-1,1-dioxo-1,4-dihydro-1lambda*6*-benzo[1,2,4]thiadiazin-7-yl}-methanesulfonamide] | 100 to 1000 | < 100 |
| Cc1cccc2c(CCC(C)C)c(=O)c(C3=NS(=O)(=O)c4cc(NS(C)(=O)=O)ccc4N3)c(O)n12 [Compound 249] | 100 to 1000 | < 100 |
| CC(C)CCn1cc(C2=NS(=O)(=O)c3cc(NS(C)(=O)=O)ccc3N2)c2cccc(Cl)c21 [Compound 208] | 100 to 1000 | > 50000 |
| CC(C)CCn1cc(C2=NS(=O)(=O)c3cc(NS(C)(=O)=O)ccc3N2)c2ccc(O)cc21 [Compound 210] | 100 to 1000 | 10000 to 50000 |
| CC(C)CCn1cc(C2=NS(=O)(=O)c3cc(NS(C)(=O)=O)ccc3N2)c2c(O)cccc21 [Compound 209] | 100 to 1000 | > 50000 |
| COc1ccc2c(C3=NS(=O)(=O)c4cc(NS(C)(=O)=O)ccc4N3)cn(CCC(C)C)c2c1 [Compound 206] | 1000 to 10000 | > 50000 |
| CC(C)CCn1cc(C2=NS(=O)(=O)c3cc(NS(C)(=O)=O)ccc3N2)c2ccccc21 [Compound 203] | 100 to 1000 | > 50000 |
| CC(C)CCn1nc(C2=NS(=O)(=O)c3cc(NS(C)(=O)=O)ccc3N2)c2ccccc21 [Compound 204] | 100 to 1000 | 10000 to 50000 |

| Compound | EC50 [1] [nM] | EC50 [2] [nM] |
| --- | --- | --- |
| CS(=O)(=O)Nc1ccc2c(c1)S(=O)(=O)N=C(c1c(O)n3ccccc3c(Cc3ccccc3F)c1=O)N2 [Compound 237, N-{3-[1-(2-Fluoro-benzyl)-4-hydroxy-2-oxo-2H-quinolizin-3-yl]-1,1-dioxo-1,4-dihydro-1lambda′6′-benzo[1,2,4]thiadiazin-7-yl}-methanesulfonamide] | < 100 | < 100 |
| CC(C)CCc1c2n(c(O)c(C3=NS(=O)(=O)c4cc(NS(C)(=O)=O)ccc4N3)c1=O)CCCC2 [Compound 220] | < 100 | 100 to 1000 |
| COc1ccc(Cc2c(=O)c(C3=NS(=O)(=O)c4cc(NS(C)(=O)=O)ccc4N3)c(O)n3ccccc23)cc1 [Compound 245] | 100 to 1000 | < 100 |
| CC(C)CCn1cc(C2=NS(=O)(=O)c3cc(NS(C)(=O)=O)ccc3N2)c2cc(Br)ccc21 [Compound 212] | 1000 to 10000 | > 50000 |
| CS(=O)(=O)Nc1ccc2c(c1)S(=O)(=O)N=C(c1cccc(C(F)(F)F)c1)N2 [Compound 224] | 10000 to 50000 | < 100 |
| CC(C)CCn1cc(C2=NS(=O)(=O)c3cc(NS(C)(=O)=O)ccc3N2)c2cc(Cl)ccc21 [Compound 207] | 1000 to 10000 | > 50000 |
| CC(C)CCc1c(=O)c(C2=NS(=O)(=O)c3cc(NS(C)(=O)=O)ccc3N2)c(O)n2ccccc12 [Compound 225] | < 100 | < 100 |
| CC(C)CCn1nc(C2=NS(=O)(=O)c3ccccc3N2)c2ccccc21 [Compound 202] | 10000 to 50000 | 10000 to 50000 |
| O=S1(=O)NC(c2c(O)c(Br)c3ccccc3c2O)=Nc2ccccc21 [Compound 105, 4-bromo-1,3-dihydroxy-2-(1,1-dioxo-2H-(1,2,4)-benzothiadiazin-3-yl)naphthalene] | 1000 to 10000 | 1000 to 10000 |
| CC(C)CCc1c(O)c(C2=Nc3ccccc3S(=O)(=O)N2)c(O)c2ccccc12 [Compound 104, 1,3-dihydroxy-2-(1,1-dioxo-2H-(1,2,4)-benzothiadiazin-3-yl)-4-(3-methylbutyl)naphthalene] | 100 to 1000 | 1000 to 10000 |
| Cc1ccc2c(CCC(C)C)c(=O)c(C3=NS(=O)(=O)c4cc(NS(C)(=O)=O)ccc4N3)c(O)n2c1 [Compound 252] | < 100 | < 100 |
| CC(C)CCn1c(=O)c(C2=NS(=O)(=O)c3ccccc3N2)c(O)n2ccnc12 [Compound 221, 6-(1,1-Dioxo-1,4-dihydro-1lambda*6*-benzo[1,2,4]thiadiazin-3-yl)-5-hydroxy-8-(3-methyl-butyl)-8H-imidazo[1,2-a]pyrimidin-7-one] | 100 to 1000 | > 50000 |
| CC(C)(C)CCc1c(=O)c(C2=NS(=O)(=O)c3cc(NS(C)(=O)=O)ccc3N2)c(O)n2ccccc12 [Compound 227] | < 100 | < 100 |
| CC(C)CCn1c(=O)c(C2=NS(=O)(=O)c3cc(NS(C)(=O)=O)ccc3N2)c(O)n2ccnc12 [Compound 222, N-{3-[5-Hydroxy-8-(3-methyl-butyl)-7-oxo-7,8-dihydro-imidazo[1,2-a]pyrimidin-6-yl]-1,1-dioxo-1,4-dihydro-1lambda*6*-benzo[1,2,4]thiadiazin-7-yl}-methanesulfonamide] | < 100 | 100 to 1000 |
| CS(=O)(=O)Nc1ccc2c(c1)S(=O)(=O)N=C(c1c(O)n3ccccc3c(Cc3cccs3)c1=O)N2 [Compound 244] | < 100 | – |
| Cc1cc2c(o1)c(C1=NS(=O)(=O)c3cc(NS(C)(=O)=O)ccc3N1)c(=O)n1ccccc21 [Compound 242] | 10000 to 50000 | – |
| CC(C)CCC1(C)C(=O)C(C2=Nc3ccccc3S(=O)(=O)N2)=C(O)c2cccn21 (stereo not shown) [Compound 213] | < 100 | 10000 to 50000 |
| CS(=O)(=O)Nc1ccc2c(c1)S(=O)(=O)N=C(c1c(O)n3nccc3n(CCc3ccc(F)cc3)c1=O)N2 [Compound 232, N-(3-{4-[2-(4-Fluoro-phenyl)-ethyl]-7-hydroxy-5-oxo-4,5-dihydro-pyrazolo[1,5-a]pyrimidin-6-yl}-1,1-dioxo-1,4-dihydro-1lambda*6*-benzo[1,2,4]thiadiazin-7-yl)-methanesulfonamide] | > 50000 | < 100 |
| CS(=O)(=O)Nc1ccc2c(c1)S(=O)(=O)N=C(c1c(O)n3nccc3n(Cc3ccccc3)c1=O)N2 [Compound 230, N-[3-(4-Benzyl-7-hydroxy-5-oxo-4,5-dihydro-pyrazolo[1,5-a]pyrimidin-6-yl)-1,1-dioxo-1,4-dihydro-1lambda*6*-benzo[1,2,4]thiadiazin-7-yl]-methanesulfonamide] | 1000 to 10000 | < 100 |
